Data as given in paper PMC5728361 (Structure (London, England : 1993), 2017).

Target: PLC-δ1 PH domain (Homo sapiens, UniProt P51178)
Type: binding
Settings: pH 7.5

Sequence of PLC-δ1 PH domain (P51178 21-130): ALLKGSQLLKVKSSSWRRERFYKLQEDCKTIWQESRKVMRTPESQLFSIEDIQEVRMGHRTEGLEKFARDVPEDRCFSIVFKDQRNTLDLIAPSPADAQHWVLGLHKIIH

“L-α-phosphatidylinositol-4,5-bisphosphate [PI(4,5)P2]” was tested, and the “PIP-binding specificity of PLC-δ1 PH domain” value was “binding specificity”.
